Data set [1] is described as follows: Determination of dissociation constants (pKa) by capillary zone electrophoresis. It is filed as physicochemical. The conditions noted are these: 25 °C, BGE pH 3.9 to 9.2, mean and standard deviation of four measurements, read-out: pKa (exp.). How it is done: The dissociation constants (pKa) of studied compounds were determined by means of CE. The measured values and values predicted by chemical software (ACD Percepta ver. 2012, Advanced Chemistry Development, Toronto, ON, Canada; MarvinSketch 6.0.6., ChemAxon Kft., Budapest, Hungary) are shown in Table 1. The correlation coefficients of the experimentally determined values were greater than 0.999 and standard deviation equal or less than 0.02 units (n = 4). The experimental values are in the range 6.35–6.92 and the highest values were recorded for the 1-(2-methoxyphenylpiperazine) derivatives 7b, 8b, 9b. The clinically used β-blockers are usually stronger bases, the values of studied compounds are lower due to the presence of piperazine moiety instead of secondary amine group.
The CE experiments were carried out with an Agilent 3D CE (Agilent Technologies) capillary electrophoresis system equipped with an autosampler, automatic injector, photodiode array detector, and an air cooling unit for the capillary. The instrument control and analysis were performed with 3D-CE ChemStation software (Agilent Technologies). Uncoated fused-silica capillary (Agilent Technologies) of 50 µm internal diameter, total length of 33.0 cm and effective length (to the detector) of 24.5 cm was used. The capillary cassette temperature was maintained at 25 °C with air cooling. Three milligrams of the sample were dissolved in 1 mL of 50% methanol and 10 times diluted with appropriate background electrolyte before analysis. Samples were injected hydrodynamically at 40 mbar pressure for 4.0 s. Running voltage was 15 kV of positive polarity. UV detection was performed at 254 nm. As a marker of electroosmotic flow, mesityl oxide was used. The effective mobilities were recorded for BGE pH values in the range of 3.9 to 9.2 (ionic strength equal to 10 mM), 4 runs at 10 different buffer pH values. The effective mobilities (μeff) were calculated according to Equation (3). (3) μeff=LtotLeff/U(1/tmig−1/tEOF) where tmig is the migration time of the analyte and tEOF is the migration time of a neutral marker compound that is of the same velocity as the electroosmotic flow (EOF). Leff is distance from the injection end of capillary to the detector and Ltot is the total length of the capillary over which the voltage U was applied. SigmaPlot for Windows version 11.0 (Systat Software GmbH, Erkrath, Germany) was employed for the nonlinear regression analysis of µeff/pH relationship having characteristic sigmoidal shape with inflection point indicating pKa value.
The pH measurements were taken with a combination glass electrode (HI 1332B, HANNA Instruments, Woonsocket, RI, USA), using a Thermo Orion 370 PerpHect® pH meter (ThermoFisher Scientific).

Data set [2] is described as follows: Lipophilicity index (log kw7.4, log kw) by RP-HPLC. The format is physicochemical. The conditions noted are these: for log kw7.4: RP-HPLC, ZORBAX Extend-C18, pH 7.4, extrapolated to 100% water, mean and standard deviation; for log kw: neutral form, calculated from log kw7.4 and pKa by Equation (2). How it is done: The lipophilicity indexes log kw7.4 were measured by means of RP-HPLC method. The log kw values were then calculated according to Equation (2) given in Section 3.3. The correlation coefficients were greater than 0.999 with covariance equal or less than 0.03 units (n = 2). The log kw^7.4 values of synthetized compounds were measured by a Dionex Ultimate 3000 (Thermo Fisher Scientific) HPLC system controlled through the Chromeleon® Chromatography Data System (version 7.2). The separation was performed on ZORBAX Extend-C18 (3.5 µm, 3 × 150 mm) column (Agilent Technologies). Mobile phase consists of 0.02 M […] with addition of 0.15% of n-decylamine (pH = 7.4; constituent A) and methanol to which 0.25% of n-octanol was added (constituent B). The total flow rate was 0.4 mL/min, the injection volume was 1 μL, and the column temperature was maintained at 25 °C. The detection wavelength of 254 nm was chosen. One milligram of the sample was dissolved in 1 mL of methanol and diluted to the concentration 0.1 mg/mL with 50% methanol. Retention factors of the compound were measured under isocratic conditions in the range 20:80–50:50 (A:B; v/v), 5 values for each factor in duplicate. Linear regression analysis was performed and log kw7.4 values were calculated according to Equation (1). (1) logk=−Sϕ+logkw where log k represents a logarithm of individual isocratic factor, φ is the organic phase concentration, and S is a constant derived by linear regression analysis. The retention factor corresponding to the neutral form (log kw) was estimated from the apparent log kw7.4 by using Equation (2). (2) logkw=logkwapp+log(1+10^pKa−pH)

The structures appear in SMILES notation.

The compound `CCCOCCOc1ccc(C(=O)OCC(O)CN2CCN(c3ccccc3)CC2)cc1.Cl.Cl` (stereo not drawn) [9a, 1-{2-Hydroxy-3-[(4-propoxyethoxybenzoyl)oxy]propyl}-4-phenylpiperazinediium dichloride] gave a melting point of 197 to 199 °C. Also, in data set [1], the pKa came to 6.5 ± 0.02. Besides, in data set [2], the “log kw7.4” value is listed as 4.29 ± 0.03 and the log kw is given as 4.34 ± 0.10.

The compound `CC(C)OCCOc1ccc(C(=O)OCC(O)CN2CCN(c3ccccc3)CC2)cc1.Cl.Cl` (stereo not drawn) [8a, 1-{2-Hydroxy-3-[(4-isopropoxyethoxybenzoyl)oxy]propyl}-4-phenylpiperazinediium dichloride] displayed a melting point of 200 to 202 °C. Further, in data set [1], the pKa worked out at 6.49 ± 0.01. For the same compound, in data set [2], the “log kw7.4” value is listed as 4.21 ± 0.01 and the log kw was 4.25 ± 0.05.

The compound `CCCOCCOc1ccc(C(=O)OCC(O)CN2CCN(c3ccc(OC)cc3)CC2)cc1.Cl.Cl` (stereo not drawn) [9c, 1-{2-Hydroxy-3-[(4-propoxyethoxybenzoyl)oxy]propyl}-4-(4-methoxyphenyl)piperazinediium dichloride] had a melting point of 173 to 175 °C. Besides, the pKa in data set [1] came to 6.39 ± 0.01. Further, in data set [2], the “log kw7.4” value was 3.99 ± 0.02 and the log kw is 4.03 ± 0.09.

In the case of `COc1ccc(N2CCN(CC(O)COC(=O)c3ccc(OCCOC(C)C)cc3)CC2)cc1.Cl.Cl` (stereo not drawn) [8c, 1-{2-Hydroxy-3-[(4-isopropoxyethoxybenzoyl)oxy]propyl}-4-(4-methoxyphenyl)piperazinediium dichloride], the melting point is 193 to 195 °C. For the same compound, the pKa in data set [1] stood at 6.35 ± 0.02. For the same compound, in data set [2], the “log kw7.4” value was 3.90 ± 0.02 and the log kw is listed as 3.93 ± 0.06.

With `COc1ccccc1N1CCN(CC(O)COC(=O)c2ccc(OCCOC(C)C)cc2)CC1.Cl.Cl` (stereo not drawn) [8b, 1-{2-Hydroxy-3-[(4-isopropoxyethoxybenzoyl)oxy]propyl}-4-(2-methoxyphenyl)piperazinediium dichloride], the melting point is 154 to 156 °C. Further, the pKa in data set [1] turned out to be 6.92 ± 0.01. In addition, in data set [2], the “log kw7.4” value is on record as 4.03 ± 0.02 and the log kw was 4.15 ± 0.07.

For the compound `C=CCOCCOc1ccc(C(=O)OCC(O)CN2CCN(c3ccc(OC)cc3)CC2)cc1.Cl.Cl` (stereo not drawn) [7c, 1-{3-[(4-Allyloxyethoxybenzoyl)oxy]-2-hydroxypropyl}-4-(4-methoxyphenyl)piperazinediium dichloride], the melting point is 170 to 173 °C. The pKa in data set [1] came to 6.49 ± 0.02. For the same compound, in data set [2], the “log kw7.4” value is given as 3.67 ± 0.02 and the log kw was 3.71 ± 0.08.

As for `C=CCOCCOc1ccc(C(=O)OCC(O)CN2CCN(c3ccccc3OC)CC2)cc1.Cl.Cl` (stereo not drawn) [7b, 1-{3-[(4-Allyloxyethoxybenzoyl)oxy]-2-hydroxypropyl}-4-(2-methoxyphenyl)piperazinediium dichloride], the melting point lay in the range of 178 to 180 °C. Also, the pKa in data set [1] is 6.88 ± 0.02. Further, in data set [2], the “log kw7.4” value is listed as 3.78 ± 0.02 and the log kw is recorded as 3.89 ± 0.08.

The compound `CCCOCCOc1ccc(C(=O)OCC(O)CN2CCN(c3ccccc3OC)CC2)cc1.Cl.Cl` (stereo not drawn) [9b, 1-{2-Hydroxy-3-[(4-propoxyethoxybenzoyl)oxy]propyl}-4-(2-methoxyphenyl)piperazinediium dichloride] had a melting point of 143 to 146 °C. In data set [1], the pKa turned out to be 6.79 ± 0.02. In data set [2], the “log kw7.4” value is 4.11 ± 0.02 and the log kw is listed as 4.20 ± 0.09.

Compound `C=CCOCCOc1ccc(C(=O)OCC(O)CN2CCN(c3ccccc3)CC2)cc1.Cl.Cl` (stereo not drawn) [7a, 1-{3-[(4-Allyloxyethoxybenzoyl)oxy]-2-hydroxypropyl}-4-phenylpiperazinediium dichloride] registered a melting point of 185 to 187 °C. Also, in data set [1], the pKa is 6.47 ± 0.02. In data set [2], the “log kw7.4” value is on record as 3.97 ± 0.03 and the log kw is 4.01 ± 0.09.

By pKa is commonly meant the pH at which an ionisable group is half protonated. For orientation: melting point means the temperature, or range, at which the solid turns liquid.

The record behind these values is publication PMC6273861, “Synthesis and Determination of Physicochemical Properties of New 3-(4-Arylpiperazin-1-yl)-2-hydroxypropyl 4-Alkoxyethoxybenzoates” (Molecules, 2016).
